tested on: Recombinant mouse PD-L1; assay: Rescue of mouse splenocyte proliferation in the presence of recombinant PD-L1 (CFSE proliferation assay); format: cell-based; details: compound at 100 nM; anti-CD3/CD28 stimulated mouse splenocytes + PD-L1; 72 h; stimulated splenocyte proliferation normalised as 100%; read-out: Percent rescue of splenocyte proliferation (@100 nM)
Experimental: Rescue of Mouse Splenocyte Proliferation in the Presence of Recombinant PD-L1
Recombinant mouse PD-L1 (rm-PDL-1, cat no: 1019-B7-100; R&D Systems) were used as the source of PD-L1.
Mouse splenocytes harvested from 6-8 weeks old C57 BL6 mice; RPMI 1640 (GIBCO, Cat #11875); DMEM with high glucose (GIBCO, Cat #D6429); Fetal Bovine Serum [Hyclone, Cat #SH30071.03]; Penicillin (10000 unit/mL)-Streptomycin (10,000 μg/mL) Liquid (GIBCO, Cat #15140-122); MEM Sodium Pyruvate solution 100 mM (100×), Liquid (GIBCO, Cat #11360); Nonessential amino acid (GIBCO, Cat #11140); L-Glutamine (GIBCO, Cat #25030); Anti-CD3 antibody (eBiosciences—16-0032); Anti-CD28 antibody (eBiosciences—16-0281); ACK lysis buffer (1 mL) (GIBCO, Cat #-A10492); Histopaque (density-1.083 gm/mL) (SIGMA 10831); Trypan blue solution (SIGMA-T8154); 2 mL Norm Ject Luer Lock syringe-(Sigma 2014-12); 40 μm nylon cell strainer (BD FALCON 35230); Hemacytometer (Bright line-SIGMA Z359629); FACS Buffer (PBS/0.1% BSA): Phosphate Buffered Saline (PBS) pH 7.2 (Hi-Media TS1006) with 0.1% Bovine Serum Albumin (BSA) (SIGMA A7050) and sodium azide (SIGMA 08591); 5 mM stock solution of CFSE: CFSE stock solution was prepared by diluting lyophilized CFSE with 180 μL of Dimethyl sulfoxide (DMSO C2H6SO, SIGMA-D-5879) and aliquoted in to tubes for further use. Working concentrations were titrated from 10 μM to 1 μM. (eBioscience-650850-85); 0.05% Trypsin and 0.02% EDTA (SIGMA 59417C); 96-well format ELISA plates (Corning CLS3390); BD FACS caliber (E6016); Recombinant mouse B7-H1/PDL1 Fc Chimera, (rm-PD-L1 cat no: 1019-B7-100).
Splenocytes harvested in a 50 mL falcon tube by mashing mouse spleen in a 40 μm cell strainer were further treated with 1 mL ACK lysis buffer for 5 min at room temperature. After washing with 9 mL of RPMI complete media, cells were re-suspended in 3 mL of 1× PBS in a 15 mL tube. 3 mL of Histopaque was added carefully to the bottom of the tube without disturbing overlaying splenocyte suspension. After centrifuging at 800×g for 20 min at room temperature, the opaque layer of splenocytes was collected carefully without disturbing/mixing the layers. Splenocytes were washed twice with cold 1× PBS followed by total cell counting using Trypan Blue exclusion method and used further for cell based assays.
Splenocytes were cultured in RPMI complete media (RPMI+10% fetal bovine serum+1 mM sodium pyruvate+10,000 units/mL penicillin and 10,000 μg/mL streptomycin) and maintained in a CO2 incubator with 5% CO2 at 37° C.
CFSE is a dye that passively diffuses into cells and binds to intracellular proteins. 1×10^6 cells/mL of harvested splenocytes were treated with 5 μM of CFSE in pre-warmed 1× PBS/0.1% BSA solution for 10 min at 37° C. Excess CFSE was quenched using 5 volumes of ice-cold culture media to the cells and incubated on ice for 5 min CFSE labelled splenocytes were further given three washes with ice cold complete RPMI media. CFSE labelled 1×10^5 splenocytes added to wells containing either MDA-MB231 cells (1×10^5 cells cultured in high glucose DMEM medium) or recombinant human PDL-1 (100 ng/mL) and compounds of the present invention. Splenocytes were stimulated with anti-mouse CD3 and anti-mouse CD28 antibody (1 μg/mL each) and the culture was further incubated for 72 h at 37° C. with 5% CO2. Cells were harvested and washed thrice with ice cold FACS buffer and % proliferation was analysed by flow cytometry with 488 nm excitation and 521 nm emission filters.
Percent splenocyte proliferation was analysed using cell quest FACS program and percent rescue of splenocyte proliferation by compound was estimated after deduction of % background proliferation value and normalising to % stimulated splenocyte proliferation (positive control) as 100%. […]

SMILES | activity at 0.1 µM [%]
CC(O)[C@H](NC(=O)N[C@@H](CC(N)=O)c1nc(N2CCNCC2)no1)C(=O)O (stereo partly shown) [Compound 16] | 79
CC(O)[C@H](NC(=O)N[C@@H](CCC(=O)O)c1nc([C@@H]2COCCN2)no1)C(=O)O (stereo partly shown) [Compound 47] | 57
CC(O)[C@H](NC(=O)N[C@@H](CCC(=O)O)c1nc(N2CCCC2)no1)C(=O)O (stereo partly shown) [Compound 39] | 39
Cc1ccc(-c2noc([C@H](CC(N)=O)NC(=O)N[C@H](C(=O)O)C(C)O)n2)o1 (stereo partly shown) [Compound 26] | 24
NCCCC[C@H](NC(=O)N[C@@H](CC(N)=O)c1nc([C@H]2CCCCN2)no1)C(=O)O [Compound 34] | 78
CC(O)[C@H](NC(=O)N[C@@H](CC(N)=O)c1nc(C2(N)CCCC2)no1)C(=O)O (stereo partly shown) [Compound 48] | 47
CC(O)[C@H](NC(=O)N[C@@H](CC(N)=O)c1nc([C@@H]2CNCCN2)no1)C(=O)O (stereo partly shown) [Compound 45] | 49
CC(O)[C@H](NC(=O)N[C@@H](CC(N)=O)c1nc(N2CCC[C@H](O)C2)no1)C(=O)O (stereo partly shown) [Compound 27] | 6
CC(O)[C@H](NC(=O)N[C@@H](CC(N)=O)c1nc([C@@H]2CCCCN2)no1)C(=O)O (stereo partly shown) [Compound 44] | 84
CC(O)[C@H](NC(=O)N[C@@H](CC(=O)O)c1nc(-c2cnccn2)no1)C(=O)O (stereo partly shown) [Compound 41] | 73
CC(O)[C@H](NC(=O)N[C@@H](CC(N)=O)c1nc([C@@H]2COCCN2)no1)C(=O)O (stereo partly shown) [Compound 43] | 92
O=C(O)CNC(=O)N[C@@H](CC(=O)O)c1nc(N2CCCC2)no1 [Compound 30] | 7
C[C@H](NC(=O)N[C@@H](CCCCN)c1nc([C@@H]2CCCN2)no1)C(=O)O [Compound 52] | 46
CC(O)[C@H](NC(=O)N[C@@H](CC(N)=O)c1nc(-c2cnccn2)no1)C(=O)O (stereo partly shown) [Compound 21] | 39
CC(O)[C@H](NC(=O)N[C@@H](CC(N)=O)c1nc(C2CCCCC2)no1)C(=O)O (stereo partly shown) [Compound 46] | 52
CC(O)[C@H](NC(=O)N[C@@H](CC(N)=O)c1nc(-c2cc(Cl)ccn2)no1)C(=O)O (stereo partly shown) [Compound 22] | 39
COc1ccnc(-c2noc([C@H](CC(N)=O)NC(=O)N[C@H](C(=O)O)C(C)O)n2)c1 (stereo partly shown) [Compound 23] | 27
CC(O)[C@H](NC(=O)N[C@@H](CC(N)=O)c1nc([C@@H]2C[C@@H](O)CN2)no1)C(=O)O (stereo partly shown) [Compound 51] | 44
CC(O)[C@H](NC(=O)N[C@@H](CCC(=O)O)c1nc(-c2cc(F)ccc2F)no1)C(=O)O (stereo partly shown) [Compound 37] | 74
CC(O)[C@H](NC(=O)N[C@@H](CC(N)=O)c1nc(-c2cc(F)ccc2F)no1)C(=O)O (stereo partly shown) [Compound 25] | 42
CC(O)[C@H](NC(=O)N[C@@H](Cc1cn(-c2ccccc2C(=O)O)nn1)c1nc(-c2cnccn2)no1)C(=O)O (stereo partly shown) [Compound 31] | 67
CC(O)[C@H](NC(=O)N[C@@H](CC(N)=O)c1nc(N2CCCCC2)no1)C(=O)O (stereo partly shown) [Compound 15] | 54
CC(O)[C@H](NC(=O)N[C@@H](CC(N)=O)c1nc(-c2cccc(F)c2)no1)C(=O)O (stereo partly shown) [Compound 24] | 50
CC(O)[C@H](NC(=O)N[C@@H](CC(N)=O)c1nc(-c2ccccn2)no1)C(=O)O (stereo partly shown) [Compound 20] | 27
CC(O)[C@H](NC(=O)N[C@@H](CC(N)=O)c1nc(-c2ccc(-c3ccccc3)cc2)no1)C(=O)O (stereo partly shown) [Compound 40] | 79
C#CC[C@H](NC(=O)N[C@H](C(=O)O)C(C)O)c1nc(-c2cnccn2)no1 (stereo partly shown) [Compound 32] | 92
CC(O)[C@H](NC(=O)N[C@@H](CC(N)=O)c1nc(C2(N)CCCCC2)no1)C(=O)O (stereo partly shown) [Compound 49] | 16
CC(O)[C@H](NC(=O)N[C@@H](CC(=O)O)c1nc(N2CCCC2)no1)C(=O)O (stereo partly shown) [Compound 38] | 27
